Our source for the recovery, IC50 and Selectivity values is patent US11472838B2, “Inhibitors of blood coagulation factor XIII” (Zedira GmbH, priority 2018, dated 2022).

What is called IC50 is the concentration at which inhibition is half-maximal.

A short description of series [1]: Stability of compounds in plasma (HPLC). The method, then:
Further, the stability of compounds in plasma was determined as prerequisite for drug-likeness. Briefly, after spiking the chemical entities, the plasma was incubated at 37° C. At certain time points (e.g. at 15 and 120 minutes), 3 vol. cold MeOH were added to extract the compounds. After centrifugation, the supernatant was analyzed by HPLC. The half life was calculated based on the respective calibration curve.

The next series has as its target FXIII (Homo sapiens (Human), UniProt P00488). Put plainly: Inhibitory activity against FXIII (isopeptidase assay), Tables 3 and 4.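 Further: FXIIIa activity read with a peptide substrate derived from the α2-antiplasmin N-terminal dodecapeptide, FXIII activated beforehand at room temperature, inhibitor-free wells with DMSO buffer as control.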 The series is classed as biochemical.
Another series addresses TG2 (Homo sapiens (Human), UniProt P21980). Put plainly: Inhibitory activity against TG2 (isopeptidase assay), Tables 3 and 4. It is filed as biochemical. The settings on record: for Selectivity: TG2 versus FXIII.

Read-outs that look alike come from different tables or passages of the source. *1 amine or outer side, *2 acyl side, *3 side chain or, on linkers, in order; H or OH if unused. Where a SMILES comes first, the peptide text is derived from it. [ ]: non-standard residue; d: D form. The star is where a group is joined. ξ: configuration not given here. Benzoyl(2-COOH,5-NO2) = O=C(O)c1ccc([N+](=O)[O-])cc1C(=O)*; Nle(5E-ene,6-CO2Et) = CCOC(=O)/C=C/CC[C@H](N)C(=O)O; X1 = COC(=O)/C=C/CC[C@H](N[*:1])C(=O)[*:2]; Pro(4-methylene) = C=C1CN[C@H](C(=O)O)C1; Thiophene2carbonyl = O=C(c1cccs1)*; Thr(3ξ) = CC(O)[C@H](N)C(=O)O; Chg = N[C@H](C(=O)O)C1CCCCC1; Tle = CC(C)(C)[C@H](N)C(=O)O; Pip = O=C(O)[C@@H]1CCCCN1; NHIsopentyl = CC(C)CCN*; Cbz = O=C(OCc1ccccc1)*

Sequence of TG2 (P21980 whole entry): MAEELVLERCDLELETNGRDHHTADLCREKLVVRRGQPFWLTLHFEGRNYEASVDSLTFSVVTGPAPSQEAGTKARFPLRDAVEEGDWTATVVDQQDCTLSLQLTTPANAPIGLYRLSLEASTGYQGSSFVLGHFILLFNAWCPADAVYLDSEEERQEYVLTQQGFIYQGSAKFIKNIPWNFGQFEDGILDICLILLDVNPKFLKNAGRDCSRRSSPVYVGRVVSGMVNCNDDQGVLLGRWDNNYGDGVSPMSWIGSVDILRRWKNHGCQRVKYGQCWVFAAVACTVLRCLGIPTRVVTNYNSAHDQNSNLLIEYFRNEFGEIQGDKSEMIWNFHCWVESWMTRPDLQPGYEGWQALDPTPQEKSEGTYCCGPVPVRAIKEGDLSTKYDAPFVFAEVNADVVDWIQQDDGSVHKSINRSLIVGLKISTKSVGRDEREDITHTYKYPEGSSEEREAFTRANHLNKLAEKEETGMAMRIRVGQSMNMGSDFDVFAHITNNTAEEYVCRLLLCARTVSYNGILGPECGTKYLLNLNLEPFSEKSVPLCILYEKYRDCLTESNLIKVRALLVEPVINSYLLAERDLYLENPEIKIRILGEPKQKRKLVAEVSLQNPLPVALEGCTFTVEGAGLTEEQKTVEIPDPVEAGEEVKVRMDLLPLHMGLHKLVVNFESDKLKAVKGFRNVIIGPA
Sequence of FXIII (P00488 39-732): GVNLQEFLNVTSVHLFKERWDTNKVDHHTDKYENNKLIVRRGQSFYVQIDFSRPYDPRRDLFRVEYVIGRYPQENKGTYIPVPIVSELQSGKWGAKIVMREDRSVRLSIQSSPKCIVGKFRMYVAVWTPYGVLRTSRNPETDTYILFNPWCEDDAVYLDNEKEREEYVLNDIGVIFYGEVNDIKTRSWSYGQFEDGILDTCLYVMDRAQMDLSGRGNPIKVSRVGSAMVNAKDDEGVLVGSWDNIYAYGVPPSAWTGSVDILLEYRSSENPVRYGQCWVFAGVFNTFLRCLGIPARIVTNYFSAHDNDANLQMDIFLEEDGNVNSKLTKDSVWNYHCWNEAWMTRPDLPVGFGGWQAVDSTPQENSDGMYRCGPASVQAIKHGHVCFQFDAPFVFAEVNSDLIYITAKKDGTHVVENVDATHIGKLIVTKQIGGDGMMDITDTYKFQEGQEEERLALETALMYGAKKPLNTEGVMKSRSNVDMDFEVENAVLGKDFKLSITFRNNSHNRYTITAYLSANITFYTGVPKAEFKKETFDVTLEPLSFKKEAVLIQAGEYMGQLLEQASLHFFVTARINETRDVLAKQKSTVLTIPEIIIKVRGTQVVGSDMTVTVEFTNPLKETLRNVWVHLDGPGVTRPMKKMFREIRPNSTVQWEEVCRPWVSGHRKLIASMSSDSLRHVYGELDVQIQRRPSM
Procedure for FXIII: (§1) FXIIIa activity has been determined using substrate A101 (Zedira GmbH, Darmstadt, Germany), which is based on the N-terminal dodecapeptide of α2-antipiasmin.
(§2) The mixture was incubated for 20 min at room temperature to activate FXIII. […] For measurements without inhibitor, 15 μL of assay buffer/2% (v/v) DMSO were added. All measurements were performed in triplicate. The respective IC50 values were calculated by non-linear regression using the MARS software package (BMG Labtech).
Procedure for TG2: as §1, §2

With `C=C1C[C@@H](C(=O)N[C@@H](CC(C)C)C(=O)N[C@H](C(N)=O)C2CCCCC2)N(C(=O)[C@@H](NC(=O)[C@H](CC/C=C/C(=O)OCC)NC(=O)c2cc([N+](=O)[O-])ccc2C(=O)O)C(C)(C)C)C1` [Compound 42b] ({Benzoyl(2-COOH,5-NO2)}-[Nle(5E-ene,6-CO2Et)][Tle][Pro(4-methylene)]L[Chg]-NH2), the recovery at 2 h in series [1] is above 75%.
As for `CCOC(=O)/C=C/CC[C@H](NC(=O)OCc1ccccc1)C(=O)N[C@H](C(=O)N1CCCC[C@H]1C(=O)N[C@@H](CC(C)C)C(=O)OC)C(C)C` [Ref. 6, reference compound] (Cbz-[Nle(5E-ene,6-CO2Et)]V[Pip]L-OMe), the IC50 on FXIII (isopeptidase assay, Table 3, read-out: IC50 [nM] FXIII) was above 10000 nM; on TG2 (isopeptidase assay, Table 3, read-out: IC50 [nM] TG2), 48 nM.
On to `CCOC(=O)/C=C/CC[C@H](NC(=O)OCc1ccccc1)C(=O)N[C@H](C(=O)N1CCC[C@H]1C(=O)N[C@@H](CC(C)C)C(=O)N[C@H](C(N)=O)C1CCCCC1)C(C)C` [Ref. 08, reference compound] (Cbz-[Nle(5E-ene,6-CO2Et)]VPL[Chg]-NH2), for which the IC50 stood at 3650 nM on FXIII (Table 4, read-out: FXIII IC50) and 36 nM on TG2 (Table 4, read-out: TG2 IC50). For the same molecule, at TG2 (Table 4), the Selectivity came to 0.01.
In the case of `CCOC(=O)/C=C/CC[C@H](NC(=O)OCc1ccccc1)C(=O)N[C@@H](CCC(N)=O)C(=O)N1CCC[C@H]1C(=O)N[C@@H](CC(C)C)C(=O)N[C@H](C(N)=O)C1CCCCC1` [Ref. 09, reference compound] (Cbz-[Nle(5E-ene,6-CO2Et)]QPL[Chg]-NH2), the IC50 at FXIII (Table 4, read-out: FXIII IC50) turned out to be 5690 nM; at TG2 (Table 4, read-out: TG2 IC50), 26 nM.
Consider `CCOC(=O)/C=C/CC[C@H](NC(=O)OCc1ccccc1)C(=O)N[C@H](C(=O)N1CCC[C@H]1C(=O)N[C@H](C(=O)NCCC(C)C)C1CCCCC1)C(C)C` [Ref. 10, reference compound] (Cbz-[Nle(5E-ene,6-CO2Et)]VP[Chg]-NHIsopentyl), for which the IC50 came to 8180 nM on FXIII (Table 4, read-out: FXIII IC50) and 176 nM on TG2 (Table 4, read-out: TG2 IC50). At TG2 (Table 4), this molecule had a Selectivity of 0.02.
As for `CCOC(=O)/C=C/CC[C@H](NC(=O)c1cccs1)C(=O)N[C@@H](CCC(N)=O)C(=O)N1CCC[C@H]1C(=O)N[C@@H](CC(C)C)C(=O)N[C@H](C(N)=O)C1CCCCC1` [Ref. 11, reference compound] (Thiophene2carbonyl-[Nle(5E-ene,6-CO2Et)]QPL[Chg]-NH2), the IC50 on FXIII (Table 4, read-out: FXIII IC50) stood at 5360 nM; at TG2 (Table 4, read-out: TG2 IC50), 253 nM. In addition, the Selectivity at TG2 (Table 4) is listed as 0.05.
In the case of `CCOC(=O)/C=C/CC[C@H](NC(=O)OCc1ccccc1)C(=O)N[C@H](C(=O)N1CCC[C@H]1C(=O)N[C@@H](CC(C)C)C(=O)N[C@H](C(N)=O)C1CCCCC1)C1CCCCC1` [Ref. 12, reference compound] (Cbz-[Nle(5E-ene,6-CO2Et)][Chg]PL[Chg]-NH2), the IC50 at FXIII (Table 4, read-out: FXIII IC50) came to 6770 nM; at TG2 (Table 4, read-out: TG2 IC50), 345 nM. Besides, the Selectivity on TG2 (Table 4) was determined as 0.05.
The matching figures for `COC(=O)/C=C/CC[C@H](NC(=O)[C@H](CC(N)=O)NC(C)=O)C(=O)N[C@@H](CCC(=O)O)C(=O)N[C@@H](CCC(N)=O)C(=O)N[C@H](C(=O)N[C@@H](CO)C(=O)N1CCC[C@H]1C(=O)N[C@@H](CC(C)C)C(=O)N[C@H](C(=O)N[C@@H](CC(C)C)C(=O)O)C(C)O)C(C)C` (stereo partly drawn) [Ref. 19, reference compound] (Ac-N[X1]EQVSPL[Thr(3ξ)]L-OH): 4980 nM, 370 nM and 0.07.
In the case of `COC(=O)/C=C/CC[C@H](NC(=O)[C@H](CC(N)=O)NC(C)=O)C(=O)N[C@@H](CCC(=O)O)C(=O)N[C@@H](CCC(N)=O)C(=O)N[C@H](C(=O)N[C@@H](CO)C(=O)N1CCC[C@H]1C(=O)N[C@@H](CC(C)C)C(=O)N[C@H](C(=O)O)C(C)O)C(C)C` (some centres unmarked) [Ref. 20, reference compound] (Ac-N[X1]EQVSPL[Thr(3ξ)]-OH), the IC50 at FXIII (Table 4, read-out: FXIII IC50) was 8480 nM; on TG2 (Table 4, read-out: TG2 IC50), 381 nM. At TG2 (Table 4), this molecule had a Selectivity of 0.04.
As for `COC(=O)/C=C/CC[C@H](NC(=O)[C@H](CC(N)=O)NC(C)=O)C(=O)N[C@@H](CCC(=O)O)C(=O)N[C@@H](CCC(N)=O)C(=O)N[C@H](C(=O)N[C@@H](CO)C(=O)N1CCC[C@H]1C(=O)N[C@@H](CC(C)C)C(=O)O)C(C)C` [Ref. 21, reference compound] (Ac-N[X1]EQVSPL-OH), the IC50 is above 10 nM at FXIII (Table 4, read-out: FXIII IC50) and 421 nM at TG2 (Table 4, read-out: TG2 IC50).
Regarding `CCC(CC)CNC(=O)Cn1cccc(NC(=O)[C@H](CC/C=C/C(=O)OC)NC(=O)c2cncn2C)c1=O` [Ref. 25], the IC50 on FXIII (Table 4, read-out: FXIII IC50) is above 10 nM.
